Experimental data reported in article PMC6550177, “Statuses of food-derived glutathione in intestine, blood, and liver of rat” (NPJ Science of Food, 2018).
“Also recorded” adds a separate entry of the source. One block for each compound: values may come before it.

How the values were obtained:
[1] = Food-derived glutathione in washed intestine and liver after oral gavage of 13C-labeled compound (LC-MS/MS); conditions: rat
Procedure: Rats were acclimatized for a week, divided into four groups, and were given 1 mL of glutathione-1-^13C (50 mg/kg body weight) or NAC-1-^13C (50 mg/kg body weight) solutions using an oral gavage.
Portions of the thoroughly washed intestines and livers were homogenized in the same weight of PBS using a BioMasher (Nippi, Tokyo, Japan). The obtained homogenates were then mixed with the same volumes of 10% (v/v) TCA-4% (v/v) 2-mercaptoethanol and allowed to stand for 30 min at 25°C. The supernatant was collected and used to determine the total amounts of glutathione and related peptides. Another set of intestines and livers were homogenized in the same volume of PBS containing 20 mM NEM and then allowed to stand for 10 min at 25 °C. The homogenate were further diluted with another three fold volumes of PBS without NEM, and mixed with the same volume of 10% (v/v) TCA. […] The precipitate was washed with the same weight of 10% TCA three times, and the protein-bound form of glutathione was extracted with the same weight of 10% TCA-4% 2-mercaptoethanol as described above.
The 5% TCA–2% 2-mercaptoethanol extracts (50 μL) were dried under vacuum to remove excess amounts of 2-mercaptoethanol; thereafter, 20 μL of an alkaline solution was added to neutralize the extracts and they were again dried under vacuum.
With NEM, glutathione disulfide was conjugated with two molecules of AccQs, and the resultant AccQ derivative of glutathione disulfide was subjected to the LC-MS/MS as described above.

[2] = rat
Procedure: (§1) All animals were treated and cared in accordance with the National Institutes of Health’s guidelines for the use of experimental animals. All experimental procedures were approved by the Animal Care Committee of Kyoto Prefectural University (No. KPU260400-260421). Seven-week-old Wister rats (body weight 200–220 g) were housed in a 12-h light-dark cycle and allowed free access to standard rat chow and water. […] The plasma was prepared by centrifugation at 800×g for 10 min at 4 °C. The liver and small intestines were taken from the rats. The intestines were flushed with about 40 mL of cold PBS to remove its contents. The blood in the liver was purged by infusing cold PBS into the portal vein. Samples were stored at −80 °C until use.
(§2) The plasma (100 μL) was mixed with three fold volumes of ethanol. The supernatant and precipitate obtained were harvested by centrifugation at 14,200×g at 4 °C for 10 min. The supernatant was referred to as the low-molecular-weight fraction of the plasma. Aliquots of the low-molecular-weight fraction (300 μL each) were dried under vacuum, and processed using two methods. Some dried aliquots were treated with 50 μL of 5% TCA-2% 2-mercaptoethanol solution for 30 min and used in determining the total glutathione and related peptides. Free and bound-form glutathione were bound to 2-mercaptoethnol.[6] Other dried aliquots of the fraction (300 μL) were treated with 50 μL of 20 mM NEM in PBS for 10 min. Only free glutathione bound to NEM, as NEM has no reducing activity. The reaction was terminated by adding 50 μL of 5% TCA solution. The NEM-treated fraction was used in determination of the reduced-form of glutathione and glutathione disulfide.
(§3) The ethanol precipitate of the plasma was further washed with 200 μL of 75% (v/v) ethanol twice. The residue was collected by centrifugation at 14,200×g at 4 °C. Protein-bound glutathione and related peptides were liberated from the residue by extracting with 100 μL of 5% TCA-2% 2-mercaptoethanol with occasional agitation for 30 min. The supernatant obtained after centrifugation was used to determine the protein-bound form of glutathione and related peptides.[6]
(§4) The 5% TCA–2% 2-mercaptoethanol extracts (50 μL) were dried under vacuum to remove excess amounts of 2-mercaptoethanol; thereafter, 20 μL of an alkaline solution was added to neutralize the extracts and they were again dried under vacuum. The residues were mixed with 20 μL of 20 mM HCl, 60 μL of the sodium borate buffer provided with the AccQ Tag Ultra Derivatization Kit, and 20 μL of 0.3% (w/v) AccQ acetonitrile solution and heated at 50 °C for 10 min to obtain their AccQ derivatives. Then, the reaction mixtures were diluted with adequate amounts of 5 mM sodium phosphate buffer (pH 7.4) containing 10% (v/v) acetonitrile and filtered using a 0.45-μm filter (Cosmonice filter W, Nacalai Tesque). The filtrates were subjected to LC-MS/MS using a 3200 QTRAP system (AB SCIEX, Framingham, MA) as previously described.[6]
(§5) Without 2-mercaptoethanol, the sulfhydryl group of glutathione was conjugated with NEM in PBS. The NEM-glutathione derivative was directly subjected to LC-MS/MS to determine the reduced-form of glutathione. With NEM, glutathione disulfide was conjugated with two molecules of AccQs, and the resultant AccQ derivative of glutathione disulfide was subjected to the LC-MS/MS as described above. Reduced-form glutathione (2 nmol) was added to the ethanol-soluble fraction of plasma from portal blood.

[3] = mice, 12 weeks supplementation, 50 mg/kg body weight, preliminary experiment
[4] = test system: peroxisome proliferator-activated receptor gamma coactivator 1-alpha (PGC-1α); conditions: cited from earlier work
in vivo = conditions: Wister, rat, po, 50 mg/kg, 60 min after ingestion
Procedure: as §1, §2, §3, §4, §5

[5] = oral administration, vs placebo controls; cited from earlier work
[6] = oral administration, vs placebo controls; cited from earlier work; remark: listed apart in the source
[7] = patients with non-alcoholic fatty liver disease, oral administration; cited from earlier work
[8] = humans, dietary supplementation; cited from earlier work
[9] = animals, oral administration; cited from earlier work

Compound: N[C@@H](CCC(=O)N[C@@H](CS)C(=O)NCC(=O)O)C(=O)O [glutathione, γ-L-glutamyl-L-cysteinyl-glycine]
Food-derived Cys-Gly, γ-Glu-Cys and glutathione disulfide in the liver without blood [1]: negligible amounts
Food-derived glutathione as share of total glutathione in the liver ([1]; 120 min after administration at 50 mg/kg): approximately 5%
Food-derived glutathione in protein-bound fraction, plasma from portal vein vs inferior vena cava ([2]; after oral glutathione): insignificantly different
Reduced-form glutathione and glutathione disulfide in low-molecular-weight fraction of plasma from portal vein ([2]; after oral glutathione, LC-MS/MS multi-reaction monitoring): no reduced-form glutathione and glutathione disulfide were detected
Liver glutathione levels compared to controls [3]: did not significantly increase
PGC-1α / mitochondrial biogenesis ([4]; previous animal experiment): enhances mitochondrial biogenesis by increasing
concentration at 60 min (in vivo; Food-derived glutathione level in low-molecular-weight fraction of blood from hepatic portal vein): ~400 nM
concentration at 60 min (in vivo; Food-derived glutathione level in low-molecular-weight fraction of blood from inferior vena cava): < 100 nM
Melanin indices on the skin [5]: reduce melanin indices on the skin
Exercise-induced fatigue [6]: reduce
Plasma alanine aminotransferase and free fatty acid levels [7]: significantly reduce
Protein-bound glutathione in the blood plasma [8]: increase
Liver glutathione level [9]: increase the liver glutathione level

Compound: O=C1O[C@H]([C@@H](O)CO)C(O)=C1O [vitamin C]
Exercise-induced increase of PGC-1α [4]: suppress

Compound: vitamin E
Exercise-induced increase of PGC-1α [4]: suppress

More lines, main results first:

Food-derived glutathione in intestines and liver after ingestion of NAC ([1]; oral 50 mg/kg): present
Compound: CC(=O)N[C@@H](CS)[13C](=O)O [NAC, N-acetylcysteine-1-^13C]
NAC-derived glutathione (and fragment peptides) in blood plasma ([2]; oral 50 mg/kg, within 120 min, 50 mg/kg): not detected; also recorded: no significant amounts

Food-derived Cys-Gly and γ-Glu-Cys in intestines and liver ([1]; in vivo, po): negligible amounts
Food-derived glutathione content in intestine ([1]; in vivo, po, 50 mg/kg): approximately 60 μmol/kg
Food-derived glutathione content in liver ([1]; in vivo, po, 50 mg/kg): ~300 µmol/kg
Food-derived Cys-Gly and γ-Glu-Cys in plasma ([2]; in vivo, po): significant amounts
Compound: N[C@@H](CCC(=O)N[C@@H](CS)[13C](=O)NCC(=O)O)C(=O)O [glutathione-1-^13C, Glutathione-1-^13C]
Status (form) of food-derived glutathione in blood plasma ([2]; in vivo, po, 50 mg/kg): conjugated with proteins and low-molecular-weight thiol compounds
